Columns and labels:
[1] = Sensory evaluation of aqueous solution I containing (E)-2-nonenal 1 ppb: off-flavor intensity and masking component intensity; details: average panel score
Description: (§1) In ion-exchanged water, each degradation component was added to achieve the concentrations listed in Table 1, and aqueous solutions I to VI containing these degradation components were prepared.
(§2) For the aforementioned aqueous solutions containing degradation components, nootkatone was added at the concentrations listed in Table 2 to confirm the intensity of the off-flavor (masking effect) in each sample and the intensity of the masking component itself (the impact on the flavor of the food and/or beverage itself).
(§3) The test was conducted as follows. Eight experienced panelists were selected to conduct a sensory evaluation. The intensity of the off-flavor of the aqueous solution containing the degradation components derived from unsaturated fatty acids, without added masking components, was set as “Evaluation: 4.” The ion-exchanged water free of any degradation components was set as “Evaluation: 0.” The intensity of the off-flavor (masking effect) of each sample was then relatively evaluated according to the following evaluation criteria.
(§4) • Off-flavor is strongly sensed: 4 points • Off-flavor is sensed: 3 points • Off-flavor is slightly sensed: 2 points • Off-flavor is barely sensed: 1 point • Off-flavor is not sensed at all: 0 points
(§5) Also, the intensity of the masking components (impact on the flavor of the food and/or beverage itself) was absolutely evaluated according to the following evaluation criteria.
(§6) • Masking component is strongly sensed: 4 points • Masking component is sensed: 3 points • Masking component is slightly sensed: 2 points • Masking component is barely sensed: 1 point • Masking component is not sensed at all: 0 points

[2] = Overall conclusion of the sensory evaluation across aqueous solutions I to VI
Description: as §1, §2, §3, §4, §5, §6

[3] = Sensory evaluation of aqueous solution III containing 1-octen-3-one 1 ppb: off-flavor intensity and masking component intensity; details: average panel score
Description: as §1, §2, §3, §4, §5, §6

[4] = Sensory evaluation of aqueous solution VI containing 1,5-octadien-3-ol 10 ppb: off-flavor intensity and masking component intensity; details: aqueous solution VI, average panel score
Description: as §1, §2, §3, §4, §5, §6

[5] = Sensory evaluation of aqueous solution V containing 1-octen-3-ol 10 ppb: off-flavor intensity and masking component intensity; details: average panel score
Description: as §1, §2, §3, §4, §5, §6

[6] = Sensory evaluation of aqueous solution IV containing 1,5-octadien-3-one 100 ppt: off-flavor intensity and masking component intensity; details: aqueous solution IV, average panel score
Description: as §1, §2, §3, §4, §5, §6

[7] = Sensory evaluation of aqueous solution II containing (E)-2-octenal 10 ppb: off-flavor intensity and masking component intensity; details: average panel score
Description: as §1, §2, §3, §4, §5, §6

With `CC(C)C=C(C=O)c1ccccc1` [4-methyl-2-phenyl-2-pentenal] as the compound, how does the “Masking Component Intensity” value ([1]; 1 ppb added) read?
Its value is 0.5.

And the “Off-Flavor Intensity” value ([1]; 1 ppb added)?
Its value is 2.8.

And the “Masking Component Intensity” value ([1]; 1 ppm added)?
Its value is 1.9.

What about the “Off-Flavor Intensity” value ([1]; 1 ppm added) of the same compound?
The value was 1.6.

And the “Masking Component Intensity” value ([1]; 5 ppm added)?
The value was 2.9.

And the “Off-Flavor Intensity” value ([1]; 5 ppm added)?
Its value is 1.1.

What about the “Masking Component Intensity” value ([1]; 10 ppb added) of the same compound?
The value was 0.9.

What about the “Off-Flavor Intensity” value ([1]; 10 ppb added) of the same compound?
The value was 2.3.

What about the “Masking Component Intensity” value ([1]; 10 ppm added) of the same compound?
The value was 3.8.

And the “Off-Flavor Intensity” value ([1]; 10 ppm added)?
The value was 0.5.

What about the “Masking Component Intensity” value ([1]; 50 ppm added) of the same compound?
Its value is 4.0.

And the “Off-Flavor Intensity” value ([1]; 50 ppm added)?
The value was 0.3.

And the “Masking Component Intensity” value ([1]; 100 ppb added)?
The value was 1.4.

What about the “Off-Flavor Intensity” value ([1]; 100 ppb added) of the same compound?
Its value is 1.8.

And the “Masking Component Intensity” value ([1]; 100 ppt added)?
Its value is 0.4.

What about the “Off-Flavor Intensity” value ([1]; 100 ppt added) of the same compound?
Its value is 3.3.

And the “concentration that masks the off-flavor and does not affect the flavor of the food and/or beverage itself, lower limit” value [2]?
Its value is ≥ 100 ppt.

And the “concentration that masks the off-flavor and does not affect the flavor of the food and/or beverage itself, upper limit” value [2]?
Its value is ≤ 10 ppm.

And the “Masking Component Intensity” value ([3]; 1 ppb added)?
The value was 0.9.

What about the “Off-Flavor Intensity” value ([3]; 1 ppb added) of the same compound?
The value was 3.4.

And the “Masking Component Intensity” value ([3]; 1 ppm added)?
The value was 2.5.

What about the “Off-Flavor Intensity” value ([3]; 1 ppm added) of the same compound?
The value was 2.1.

What about the “Masking Component Intensity” value ([3]; 5 ppm added) of the same compound?
The value was 3.0.

And the “Off-Flavor Intensity” value ([3]; 5 ppm added)?
Its value is 1.8.

What about the “Masking Component Intensity” value ([3]; 10 ppb added) of the same compound?
Its value is 1.4.

What about the “Off-Flavor Intensity” value ([3]; 10 ppb added) of the same compound?
Its value is 3.1.

And the “Masking Component Intensity” value ([3]; 10 ppm added)?
The value was 3.5.

What about the “Off-Flavor Intensity” value ([3]; 10 ppm added) of the same compound?
The value was 1.6.

What about the “Masking Component Intensity” value ([3]; 50 ppm added) of the same compound?
The value was 3.8.

What about the “Off-Flavor Intensity” value ([3]; 50 ppm added) of the same compound?
The value was 1.3.

What about the “Masking Component Intensity” value ([3]; 100 ppb added) of the same compound?
Its value is 1.8.

What about the “Off-Flavor Intensity” value ([3]; 100 ppb added) of the same compound?
The value was 2.6.

What about the “Masking Component Intensity” value ([3]; 100 ppt added) of the same compound?
Its value is 0.5.

And the “Off-Flavor Intensity” value ([3]; 100 ppt added)?
Its value is 3.6.

What about the “Masking Component Intensity” value ([4]; 1 ppb added) of the same compound?
The value was 0.3.

And the “Off-Flavor Intensity” value ([4]; 1 ppb added)?
Its value is 1.8.

And the “Masking Component Intensity” value ([4]; 1 ppm added)?
Its value is 1.8.

And the “Off-Flavor Intensity” value ([4]; 1 ppm added)?
Its value is 0.9.

What about the “Masking Component Intensity” value ([4]; 5 ppm added) of the same compound?
Its value is 2.4.

What about the “Off-Flavor Intensity” value ([4]; 5 ppm added) of the same compound?
Its value is 0.4.

What about the “Masking Component Intensity” value ([4]; 10 ppb added) of the same compound?
Its value is 0.8.

And the “Off-Flavor Intensity” value ([4]; 10 ppb added)?
The value was 1.4.

And the “Masking Component Intensity” value ([4]; 10 ppm added)?
The value was 3.1.

And the “Off-Flavor Intensity” value ([4]; 10 ppm added)?
The value was 0.4.

What about the “Masking Component Intensity” value ([4]; 50 ppm added) of the same compound?
Its value is 3.5.

What about the “Off-Flavor Intensity” value ([4]; 50 ppm added) of the same compound?
Its value is 0.1.

And the “Masking Component Intensity” value ([4]; 100 ppb added)?
The value was 1.3.

What about the “Off-Flavor Intensity” value ([4]; 100 ppb added) of the same compound?
The value was 1.0.

And the “Masking Component Intensity” value ([4]; 100 ppt added)?
Its value is 0.0.

And the “Off-Flavor Intensity” value ([4]; 100 ppt added)?
The value was 2.1.

And the “Masking Component Intensity” value ([5]; 1 ppb added)?
Its value is 0.8.

What about the “Off-Flavor Intensity” value ([5]; 1 ppb added) of the same compound?
The value was 2.3.

What about the “Masking Component Intensity” value ([5]; 1 ppm added) of the same compound?
The value was 2.4.

And the “Off-Flavor Intensity” value ([5]; 1 ppm added)?
The value was 1.1.

And the “Masking Component Intensity” value ([5]; 5 ppm added)?
Its value is 2.8.

What about the “Off-Flavor Intensity” value ([5]; 5 ppm added) of the same compound?
Its value is 0.8.

And the “Masking Component Intensity” value ([5]; 10 ppb added)?
The value was 1.4.

What about the “Off-Flavor Intensity” value ([5]; 10 ppb added) of the same compound?
The value was 1.8.

And the “Masking Component Intensity” value ([5]; 10 ppm added)?
The value was 3.5.

What about the “Off-Flavor Intensity” value ([5]; 10 ppm added) of the same compound?
The value was 0.6.

What about the “Masking Component Intensity” value ([5]; 50 ppm added) of the same compound?
The value was 3.9.

And the “Off-Flavor Intensity” value ([5]; 50 ppm added)?
Its value is 0.5.

And the “Masking Component Intensity” value ([5]; 100 ppb added)?
Its value is 1.6.

And the “Off-Flavor Intensity” value ([5]; 100 ppb added)?
Its value is 1.6.

What about the “Masking Component Intensity” value ([5]; 100 ppt added) of the same compound?
Its value is 0.6.

And the “Off-Flavor Intensity” value ([5]; 100 ppt added)?
Its value is 2.8.

And the “Masking Component Intensity” value ([6]; 1 ppb added)?
The value was 0.4.

And the “Off-Flavor Intensity” value ([6]; 1 ppb added)?
Its value is 3.6.

What about the “Masking Component Intensity” value ([6]; 1 ppm added) of the same compound?
The value was 1.9.

And the “Off-Flavor Intensity” value ([6]; 1 ppm added)?
Its value is 2.3.

And the “Masking Component Intensity” value ([6]; 5 ppm added)?
Its value is 2.3.

And the “Off-Flavor Intensity” value ([6]; 5 ppm added)?
Its value is 2.0.

What about the “Masking Component Intensity” value ([6]; 10 ppb added) of the same compound?
The value was 1.0.

What about the “Off-Flavor Intensity” value ([6]; 10 ppb added) of the same compound?
The value was 3.0.

And the “Masking Component Intensity” value ([6]; 10 ppm added)?
The value was 3.0.

And the “Off-Flavor Intensity” value ([6]; 10 ppm added)?
Its value is 1.4.

What about the “Masking Component Intensity” value ([6]; 50 ppm added) of the same compound?
The value was 3.6.

And the “Off-Flavor Intensity” value ([6]; 50 ppm added)?
Its value is 1.0.

And the “Masking Component Intensity” value ([6]; 100 ppb added)?
Its value is 1.4.

What about the “Off-Flavor Intensity” value ([6]; 100 ppb added) of the same compound?
The value was 2.6.

What about the “Masking Component Intensity” value ([6]; 100 ppt added) of the same compound?
Its value is 0.3.

And the “Off-Flavor Intensity” value ([6]; 100 ppt added)?
Its value is 3.6.

What about the “Masking Component Intensity” value ([7]; 1 ppb added) of the same compound?
Its value is 0.5.

What about the “Off-Flavor Intensity” value ([7]; 1 ppb added) of the same compound?
The value was 2.8.

And the “Masking Component Intensity” value ([7]; 1 ppm added)?
Its value is 2.1.

What about the “Off-Flavor Intensity” value ([7]; 1 ppm added) of the same compound?
Its value is 1.6.

What about the “Masking Component Intensity” value ([7]; 5 ppm added) of the same compound?
Its value is 2.6.

And the “Off-Flavor Intensity” value ([7]; 5 ppm added)?
Its value is 1.4.

And the “Masking Component Intensity” value ([7]; 10 ppb added)?
The value was 1.1.

What about the “Off-Flavor Intensity” value ([7]; 10 ppb added) of the same compound?
Its value is 2.5.

What about the “Masking Component Intensity” value ([7]; 10 ppm added) of the same compound?
Its value is 3.4.

And the “Off-Flavor Intensity” value ([7]; 10 ppm added)?
Its value is 1.0.

And the “Masking Component Intensity” value ([7]; 50 ppm added)?
The value was 3.9.

What about the “Off-Flavor Intensity” value ([7]; 50 ppm added) of the same compound?
Its value is 0.6.

What about the “Masking Component Intensity” value ([7]; 100 ppb added) of the same compound?
The value was 1.6.

And the “Off-Flavor Intensity” value ([7]; 100 ppb added)?
Its value is 2.0.

What about the “Masking Component Intensity” value ([7]; 100 ppt added) of the same compound?
Its value is 0.4.

And the “Off-Flavor Intensity” value ([7]; 100 ppt added)?
The value was 3.0.
